According to patent US20090030037A1, “Sustained Release Formulation and Dosing Schedules of Leukotriene Synthesis Inhibitor for Human Therapy” (deCODE Genetics ehf., priority 2005, published 2009):
Read-outs that look alike come from different tables or passages of the source.

Key:
MPO [1] = assay: Study DG-031-201: ionomycin-induced MPO release in whole blood ex vivo; set-up: species or system human; conditions: difference visit 2 to 5; 500 and 750 mg/day vs placebo
Experimental: Genet. 2004). Apart from FLAP, allele A of the SNP SG12S25 in the LTA4 hydrolase gene, another gene in the LT pathway, is also associated with MI, as described in PCT application no. PCT/US03/32556 and PCT/US04/30582 incorporated by reference.
Patients who met the study eligibility criteria were enrolled and randomized into 3 different dose-level groups: (1) 64 patients on 250 mg/day therapy with DG-031 (250 mg q.d.), vs placebo; (2) 64 patients on 500 mg/day therapy with DG-031 (250 mg b.i.d.) vs placebo; and (3) 63 patients on 750 mg/day therapy with DG-031 (250 mg t.i.d.) vs placebo. […] All patients received 3 tablets per day. Treatment periods, 4 weeks in duration each, were separated by a 2-week washout period. The placebo tablets were identical in shape, color, form and taste to the active tablets except that they contained no active drug ingredients. Treatment with DG-031 or placebo was in addition to the subject's standard care, including all medications and treatment plan as prescribed by the subject's cardiologist prior to enrolment. […]
All data were analyzed according to a pre-established statistical analysis plan (SAP) and by intention-to-treat (ITT). […] The difference between DG-031 and placebo treatment was the primary outcome, assessed separately for each of the biomarkers. […]

CRP = assay: Study DG-031-203: serum CRP; type: in vivo, human
Experimental: The study also collected information on the dose-related effect of DG-031 on capacity for LTB4 production (ex vivo), plasma MPO, and serum-CRP. […] The pattern observed supported a concentration dependent pharmacologic effect of DG-031 on capacity for LTB4 production measured ex vivo. The effects on LTB4 production amounted to a 30% (p=0.016) and 25% (p=0.094) reduction with the 375 mg BID and 250 mg TID doses, respectively.

MPO [2] = assay: Study DG-031-204: MPO in ionomycin-stimulated whole blood; type: in vivo, human; conditions: for Stimulated MPO from whole blood (% change from baseline, whole blood, WBC corrected, 60 minute), mean response: after 4 weeks of DG-031 administration
Experimental: An additional single site, open label study was carried out to obtain biomarker and safety data on additional DG-031 doses (i.e., 1000 mg and 1500 mg). This study examined the safety, tolerability and dose-related effects of DG-031 on inflammatory biomarkers including: LTB4, hsCRP, and MPO. A total of 119 patients with a prior history of CAD and MI were randomized to receive either 1000 mg DG-031 (500 mg BID) or 1500 mg DG-031 (500 mg TID) daily for 4-6 weeks. Treatment with DG-031 in addition to the subject's standard care, medication, and treatment, was prescribed by the patient's cardiologist. A majority of the subjects received statin therapy before, during and after the study. Follow-up assessments were performed 2 weeks after the end of study drug administration.
The biomarkers were analyzed as described in Example 1. Statistical analysis of the data was carried out using a one-sample t-test on change from baseline with a two-sided nominal significance level of 0.050. Biomarker concentrations were log-transformed and a simple last observation carried forward (LOCF) scheme was used to impute missing observations.
Plasma MPO concentration was measured weekly. MPO measurements in ionomycin-stimulated whole blood were also measured in a subset of patients at 4 weeks.

[3] = Clinical studies in CAD patients: safety and tolerability; type: in vivo, human
Experimental: Previous clinical studies administered the dosages of DG-031 either in a single dose (QD) or twice a day (BID)
A total daily dose of 750 mg, dosed at 250 mg TID, provides a preferable PK/PD relationship (inhibition of LTB4) and efficacy in terms of lowering other biomarkers of MI risk (i.e. MPO and CRP). In addition, a total daily dose of 1000 mg, dosed at 500 mg BID, also provides a preferable PK and PD time course (inhibition of LTB4) and efficacy in terms of lowering other biomarkers of MI risk (i.e. MPO). Patient compliance is an important consideration when designing a dosing schedule and patients are more likely to comply with a twice a day dosing (BID) than three times a day doing (TID).

[4] = asthma patients, cited from earlier work

**Q.** For `O=C(O)[C@@H](c1ccc(OCc2ccc3ccccc3n2)cc1)C1CCCC1` [DG-031, (R)-(+)-alpha-cyclopentyl-4-(2-quinolinylmethoxy)-Benzeneacetic acid], which “Carry-over effect, MPO in whole blood, corr. for wbc” value (MPO [1]) is on record?
**A.** Its value is 0.01.

**Q.** What about the “Reduction in CRP levels, high CRP group” value (CRP; 250 mg TID, CRP above median 1.4 mg/L at entry) of the same compound?
**A.** The value was 48%.

**Q.** And the “CRP, change” value (CRP; 250 mg TID, Study 203, 1 wk)?
**A.** The value was 37% (St. 203).

**Q.** And the “Reduction of serum CRP” value (CRP; 250 mg TID, after one week, follow-up study (203), all subjects)?
**A.** The value was 38%.

**Q.** What about the “Reduction in CRP levels, high CRP group” value (CRP; 375 mg BID, CRP above median at entry, p=0.16) of the same compound?
**A.** The value was 31%.

**Q.** What about the “CRP, change” value (CRP; 375 mg BID, Study 203) of the same compound?
**A.** Its value is “No effect”.

**Q.** And the “Change in serum CRP” value (CRP; 375 mg BID, one week, all subjects)?
**A.** The value was −1%.

**Q.** What about the “CRP, change” value (CRP; 375 mg QD, Study 203, 1 wk) of the same compound?
**A.** The value was −28%.

**Q.** And the “Stimulated whole blood MPO concentrations” value (MPO [2]; 500 mg BID or TID, 4 weeks)?
**A.** Its value is “decreased”.

**Q.** What about the “Stimulated MPO from whole blood (% change from baseline, whole blood, WBC corrected, 60 minute), mean response” value (MPO [2]; 1000 mg (500 mg BID)) of the same compound?
**A.** The value was −19%.

**Q.** What about the “Stimulated MPO from whole blood (% change from baseline, whole blood, WBC corrected, 60 minute), mean response” value (MPO [2]; 1500 mg (500 mg TID)) of the same compound?
**A.** The value was −29%.

**Q.** And the Safety and tolerability ([3]; 250 mg QD, 375 mg QD, 250 mg BID, 375 mg BID, 250 mg TID)?
**A.** Its Safety and tolerability is “safe and well tolerated”.

**Q.** And the Safety and tolerability ([3]; total daily doses 250, 500, 750 mg, 128 days)?
**A.** The Safety and tolerability was “safe and well tolerated”.

**Q.** What about the Safety and tolerability ([4]; total daily dose 250-1000 mg, 14 days) of the same compound?
**A.** The Safety and tolerability was “safe and well tolerated”.

**Q.** What about the Safety and tolerability ([4]; total daily doses 100-1000 mg, 14-42 days) of the same compound?
**A.** The Safety and tolerability was “safe and well tolerated”.
